Data on five compounds can be found in patent US8993630B2, “Substituted sulphonamido phenoxybenzamides” (Bayer Intellectual Property GmbH, priority 2008, dated 2015).

For assay [1], the target named is T1, MEK1 (Homo sapiens, UniProt Q02750).
T1 construct: purchased Millipore 14-420 (GST-MEK1); 14-703 (Cot1); host or cells: Cot1: insect cells (SF21)
Kind of assay: MEK1 activation kinase assay (Cot1/GST-MEK1 HTRF). The following applies: GST-MEK1 substrate, read-out: IC50, inhibition of MEK1 activation. Format: biochemical. The source says: The kinase Cot1 activates MEK1 by phosphorylating its activation loop. The inhibitory activity of compounds of the present invention on this activation of MEK1 was quantified employing the HTRF assay described in the following paragraphs.
N-terminally His6-tagged recombinant kinase domain of the human Cot1 (amino acids 30-397, purchased from Millipore, cat. no 14-703) expressed in insect cells (SF21) and purified by Ni-NTA affinity chromatography was used as kinase. As substrate for the kinase reaction the unactive C-terminally His6-tagged GST-MEK1 fusion protein (Millipore cat. no 14-420) was used.
For the assay 50 nl of a 100fold concentrated solution of the test compound in DMSO was pipetted into a black low volume 384well microtiter plate (Greiner Bio-One, Frickenhausen, Germany), 3 μl of a solution of 24 nM GST-MEK1 and 166.7 μM adenosine-tri-phosphate (ATP) in assay buffer [50 mM Tris/HCl pH 7.5, 10 mM MgCl2, 2 mM dithiothreitol, 0.01% (v/v) Igepal CA 630 (Sigma), 5 mM β-phospho-glycerol] were added and the mixture was incubated for 10 min at 22° C. to allow pre-binding of the test compounds to the GST-MEK1 before the start of the kinase reaction. Then the kinase reaction was started by the addition of 2 μl of a solution of Cot1 in assay buffer and the resulting mixture was incubated for a reaction time of 20 min at 22° C. The concentration of Cot1 in the assay was adjusted depending of the activity of the enzyme lot and was chosen appropriate to have the assay in the linear range, typical enzyme concentrations were in the range of about 2 ng/μl (final conc. in the 5 μl assay volume). The reaction was stopped by the addition of 5 μl of a solution of HTRF detection reagents (13 nM anti GST-XL665 [# 61GSTXLB, Fa. Cis Biointernational, Marcoule, France], 1 nM Eu-cryptate labelled anti-phospho-MEK 1/2 (Ser217/221) [#61P17KAZ, Fa. Cis Biointernational],) in an aqueous EDTA-solution (100 mM EDTA, 500 mM KF, 0.2% (w/v) bovine serum albumin in 100 mM HEPES/NaOH pH 7.5).
The resulting mixture was incubated 2 h at 22° C. to allow the binding of the phosphorylated GST-MEK1 to the anti-GST-XL665 and the Eu-cryptate labelled anti-phospho-MEK 1/2 antibody. Subsequently the amount of Ser217/Ser221-phosphorylated substrate was evaluated by measurement of the resonance energy transfer from the Eu-Cryptate-labelled anti-phospho-MEK antibody to the anti-GST-XL665. Therefore, the fluorescence emissions at 620 nm and 665 nm after excitation at 350 nm was measured in a HTRF reader, e.g. a Rubystar (BMG Labtechnologies, Offenburg, Germany) or a Viewlux (Perkin-Elmer). The ratio of the emissions at 665 nm and at […] was taken as the measure for the amount of phosphorylated substrate. […]

Assay [2] concerns A375 cells. Description: A375 proliferation crystal violet (CV) assay. Format: cell-based. Particulars: Homo sapiens, A-375, 96 h, 4 days, crystal violet staining. Here is the method:
Cultivated human A375 cells were plated out in a density of 1500 cells/measurement point in 200 μl of growth medium (DMEM/HAMS F12 (Biochrom; FG4815) with 10% FBS and 2 mM Glutamine) in a 96-well multititer plate. After 24 hours, the cells from a plate (zero plate) were stained with crystal violet (see below), while the medium in the other plates was replaced by fresh culture medium (200 μl) to which the test substances had been added in various concentrations (0 μM, and in the range 0.3 nM -30 μM; the final concentration of the solvent dimethyl sulphoxide was 0.5%). The cells were incubated in the presence of the test substances for 4 days. The cell proliferation was determined by staining the cells with crystal violet: the cells were fixed by adding 20 μl/measurement point of an 11% glutaraldehyde solution at room temperature for 15 min. After the fixed cells had been washed three times with water, the plates were dried at room temperature. […] The dye was dissolved by adding 100 μl/measurement point of a 10% acetic acid solution, and the extinction was determined by photometry at a wavelength of 595 nm. The percentage change in cell growth was calculated by normalizing the measurements to the extinctions of the zero point plate (=0%) and the extinction of the untreated (0 μM) cells (=100%). The IC50 values were determined by means of a 4-parameter fit using the company's own software.

Assay [3] concerns MEK1/2. The following applies: cited from earlier work.
The test system of assay [4] is colon cancer. The following applies: oral treatment, mouse models; cited from earlier work.

Structures are written as SMILES. Bounds are passed on as bounds.

T1 sequence (Q02750 whole entry): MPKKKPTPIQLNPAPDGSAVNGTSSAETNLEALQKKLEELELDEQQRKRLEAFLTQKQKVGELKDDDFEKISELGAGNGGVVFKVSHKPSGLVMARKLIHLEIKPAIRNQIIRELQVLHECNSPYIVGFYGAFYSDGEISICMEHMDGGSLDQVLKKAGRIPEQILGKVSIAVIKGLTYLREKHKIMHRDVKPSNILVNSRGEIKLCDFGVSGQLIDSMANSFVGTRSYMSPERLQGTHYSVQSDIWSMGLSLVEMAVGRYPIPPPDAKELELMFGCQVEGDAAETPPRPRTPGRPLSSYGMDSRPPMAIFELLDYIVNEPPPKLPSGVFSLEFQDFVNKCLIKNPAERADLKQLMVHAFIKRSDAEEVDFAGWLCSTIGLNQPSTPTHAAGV

What is called IC50 is the concentration that gives 50% inhibition. In the case of `CCS(=O)(=O)Nc1cccc(Oc2cc(F)cc(Nc3ccc(I)cc3F)c2C(N)=O)c1` [Example Compound 1.1, 2-(3-ethanesulfonylamino-phenoxy)-4-fluoro-6-(2-fluoro-4-iodo-phenylamino)-benzamide], the IC50 in assay [1] was less than 300 nM; in assay [2], less than 100 nM.
For `CC(C)S(=O)(=O)Nc1cccc(Oc2cc(F)cc(Nc3ccc(I)cc3F)c2C(N)=O)c1` [Example Compound 1.2, 4-fluoro-2-(2-fluoro-4-iodo-phenylamino)-6-[3-(propane-2-sulfonylamino)-phenoxy]-benzamide], the IC50 is less than 300 nM in assay [1] and less than 100 nM in assay [2].
Take `CC(C)S(=O)(=O)Nc1cncc(Oc2cc(F)cc(Nc3ccc(I)cc3F)c2C(N)=O)c1` [Example Compound 2.1, 4-fluoro-2-(2-fluoro-4-iodo-phenylamino)-6-[5-(propane-2-sulfonylamino)-pyridin-3-yloxy]-benzamide]: in assay [1], the IC50 was less than 300 nM.
For `CCS(=O)(=O)Nc1cccc(COc2cc(F)cc(Nc3ccc(I)cc3F)c2C(N)=O)c1` [Example Compound 3.1, 2-(3-ethanesulfonylamino-benzyloxy)-4-fluoro-6-(2-fluoro-4-iodo-phenylamino)-benzamide], the IC50 in assay [1] is less than 300 nM.
Consider `O=C(NOCC1CC1)c1ccc(F)c(F)c1Nc1ccc(I)cc1Cl` [PD184352], for which the IC50 result in assay [3] is “low nanomolar range”. For the same compound, the “colon cancer growth in vivo” value in assay [4] is listed as “inhibit colon cancer growth in vivo in mouse models”.
